{"source": "patent US8283299B2", "about": "“Skin and hand cleaning compositions with hydrophilic emollients” (Evonik Stockhausen GmbH, priority 2007, dated 2012)", "key": {"[1]": {"conditions": "cited from earlier work"}, "[2]": {"assay": "Determination of the HLB value", "type": "physicochemical", "conditions": "5% strength dispersion/solution in water, visual comparison with emulsifiers of known HLB", "protocol": "The HLB value is determined by preparing a 5% strength dispersion/solution of the substance to be tested, here the hydrophilic emollient, in water, and determining the solubility in water. The assessment takes place visually: clouding, solubility, degree of dispersion. The HLB value is ascertained through comparison with solutions of emulsifiers whose HLB value is known."}}}
{"substance": "PEG-7 glyceryl cocoate [Glycerox HE]", "values": [{"measurement": "HLB value according to manufacturer", "setting": "[1]", "value": "HLB: 11"}]}
{"substance": "polyglyceryl-3 caprate [TEGOSOFT PC 31]", "values": [{"measurement": "HLB value (ascertained)", "setting": "[2]", "value": "HLB: 14"}]}
{"substance": "polyglyceryl-4 caprate [TEGOSOFT PC 41]", "values": [{"measurement": "HLB value (ascertained)", "setting": "[2]", "value": "HLB: 16"}]}
